Source: patent US20150291598A1 (NOVARTIS AG, priority 2012, published 2015)

System: P. falciparum (NF54 or 3D7 strain)
Assay: Assay for P. falciparum proliferation in infected human blood cells (SYBR Green)
Type: cell-based, Plasmodium falciparum
Details: NF54 or 3D7 infected human erythrocytes, 72 hours; read-out: EC50 (nM), inhibitory efficacy in delaying P. falciparum proliferation in infected human blood cells
Experimental: Assay for P. falciparum Proliferation in Infected Human Blood Cells
Compounds of the invention can be assayed to measure their capacity to inhibit proliferation of P. falciparum parasitemia in infected red blood cells. This parasite proliferation assay measures the increase in parasite DNA content using a DNA intercalating dye, SYBR Green® (INVITROGEN®) which has a high affinity for double stranded DNA.
NF54 or 3D7 P. falciparum strain is grown in complete culturing media until parasitemia reaches 3% to 8% with O+ human erythrocytes. […] 20 μl of screening media is dispensed into 384 well assay plates. 50 nl of compounds of the invention (in DMSO), including antimalarial controls (mefloquine, pyrimethamine and artemisinin), are then transferred into the assay plates, as well as DMSO alone to serve as a negative control for inhibition. Then 30 μl of a suspension of a NF54 or 3D7 P. falciparum infected erythrocytes in screening media is dispensed into the assay plates such that the final hematocrit is 2.5% with a final parasitemia of 0.3%. The plates are placed in a 37° C. incubator for 72 hours in a low oxygen environment containing 93% N2, 4% CO2, and 3% O2 gas mixture. 10 μl of lysis buffer (saponin, triton-X, EDTA) containing a 10× solution of SYBR Green I® in RPMI media is dispensed into the plates. The plates are lidded and kept at room temperature overnight for the lysis of the infected red blood cells. The fluorescence intensity is measured (excitation […], emission 530 nm) using the Envision™ system (Perkin Elmer).

Row | Compound | EC50
1 | 4-{6-[N-methyl(4-cyanobenzene)amido]imidazo[1,2-a]pyrazin-3-yl}benzamide [Compound 495] | 405 nM

Same assay, conditions: Plasmodium falciparum, 3D7|NF54, Erythrocyte, in Homo sapiens, 72 h, NF54 or 3D7 infected human erythrocytes, 72 hours; read-out: EC50 (nM), inhibitory efficacy in delaying P. falciparum proliferation in infected human blood cells

Row | Compound | EC50
2 | CN(Cc1cn2c(-c3ccc(-n4cccn4)cc3)cnc2cn1)c1ccc(F)cc1 [Compound 10] | 189 nM

Same assay, conditions: Plasmodium falciparum, Erythrocyte, 72 h, NF54 or 3D7 infected human erythrocytes, 72 hours; read-out: EC50 (nM), inhibitory efficacy in delaying P. falciparum proliferation in infected human blood cells

Row | Compound | EC50
3 | CC(N)C(=O)Nc1ccc(-c2cnc3cnc(C(=O)N(C)c4ccc(C#N)cc4)cn23)cc1 (stereo in doubt) [Compound 271, 3-{4-[(2S)-2-aminopropanamido]phenyl}-N-(4-cyanophenyl)-N-methylimidazo[1,2-a]pyrazine-6-carboxamide] | 207 nM
4 | CN(C(=O)c1cn2c(-c3ccc(NC(=O)C(N)C4CC4)cc3)cnc2cn1)c1ccc(C#N)cc1 (stereo in doubt) [Compound 292, 3-{4-[(2S)-2-amino-2-cyclopropylacetamido]phenyl}-N-(4-cyanophenyl)-N-methylimidazo[1,2-a]pyrazine-6-carboxamide] | 304 nM
5 | CN(C)CCCOc1ccc(-c2cnc3cnc(C(=O)N(C)c4ccc(C#N)cc4)cn23)cn1 [Compound 1, N-(4-cyanophenyl)-3-(6-(3-(dimethylamino)propoxy)pyridin-3-yl)-N-methylimidazo[1,2-a]pyrazine-6-carboxamide] | 477 nM
6 | CN(Cc1cn2c(-c3ccc(-c4ccn[nH]4)cc3)cnc2cn1)c1ccc(C#N)cc1 [Compound 2, 4-(((3-(4-(1H-pyrazol-5-yl)phenyl)imidazo[1,2-a]pyrazin-6-yl)methyl)(methyl)amino)benzonitrile] | 66 nM
7 | CN(Cc1cn2c(-c3ccc(-c4ccn[nH]4)cc3)cnc2cn1)c1ccc(F)cc1 [Compound 3, N-((3-(4-(1H-pyrazol-5-yl)phenyl)imidazo[1,2-a]pyrazin-6-yl)methyl)-4-fluoro-N-methylaniline] | 58 nM
8 | CN(Cc1cn2c(-c3ccc(Cl)cc3)cnc2cn1)c1ccc(C#N)cc1 [Compound 4, 4-(((3-(4-chlorophenyl)imidazo[1,2-a]pyrazin-6-yl)methyl)(methyl)amino)benzonitrile] | 185 nM
9 | CN(Cc1cn2c(-c3ccc(-c4ccn[nH]4)cc3)cnc2cn1)c1ccc(Cl)cc1 [Compound 5, N-((3-(4-(1H-pyrazol-5-yl)phenyl)imidazo[1,2-a]pyrazin-6-yl)methyl)-4-chloro-N-methylaniline] | 238 nM
10 | CN(C(=O)c1cn2c(-c3ccc(C(F)(F)F)cc3)cnc2cn1)c1ncc(Cl)cc1F [Compound 6, N-(5-chloro-3-fluoropyridin-2-yl)-N-methyl-3-(4-(trifluoromethyl)phenyl)imidazo[1,2-a]pyrazine-6-carboxamide] | 619 nM
11 | CS(=O)(=O)c1ccc2c(c1)CCN2C(=O)c1cn2c(-c3ccc(C(F)(F)F)cc3)cnc2cn1 [Compound 7, 5-methanesulfonyl-1-({3-[4-(trifluoromethyl)phenyl]imidazo[1,2-a]pyrazin-6-yl}carbonyl)-2,3-dihydro-1H-indole] | > 10000 nM
12 | CN(Cc1cn2c(-c3ccc4c(cnn4C)c3)cnc2cn1)c1ccc(F)cc1 [Compound 8, 4-fluoro-N-methyl-N-((3-(1-methyl-1H-indazol-5-yl)imidazo[1,2-a]pyrazin-6-yl)methyl)aniline] | 21 nM
13 | CN(Cc1cn2c(-c3ccc(-n4cccn4)cc3)cnc2cn1)c1ccc(Cl)cc1 [Compound 9, N-((3-(4-(1H-pyrazol-1-yl)phenyl)imidazo[1,2-a]pyrazin-6-yl)methyl)-4-chloro-N-methylaniline] | 218 nM
14 | CN(C(=O)c1cn2c(-c3ccc(C(F)(F)F)cc3)cnc2cn1)c1ccc2c(c1)nnn2C [Compound 12, N-methyl-N-(1-methyl-1H-benzo[d][1,2,3]triazol-5-yl)-3-(4-(trifluoromethyl)phenyl)imidazo[1,2-a]pyrazine-6-carboxamide] | 4850 nM
15 | CN(C(=O)c1cn2c(-c3ccc(-c4ccn[nH]4)cc3)cnc2cn1)c1ccc(Cl)cc1 [Compound 13, N-(4-chlorophenyl)-N-methyl-3-[4-(1H-pyrazol-5-yl)phenyl]imidazo[1,2-a]pyrazine-6-carboxamide] | 41 nM
16 | CN(C(=O)c1cn2c(-c3ccc(C(F)(F)F)cc3)cnc2cn1)c1nc2ccccc2s1 [Compound 14, N-(1,3-benzothiazol-2-yl)-N-methyl-3-[4-(trifluoromethyl)phenyl]imidazo[1,2-a]pyrazine-6-carboxamide] | 9580 nM
17 | CN(C(=O)c1cn2c(-c3ccc(-c4nnc(N)o4)cc3)cnc2cn1)c1ccc(Cl)cc1 [Compound 15, -[4-(5-amino-1,3,4-oxadiazol-2-yl)phenyl]-N-(4-chlorophenyl)-N-methylimidazo[1,2-a]pyrazine-6-carboxamide] | 29 nM
18 | COc1cccnc1N(C)C(=O)c1cn2c(-c3ccc(C(F)(F)F)cc3)cnc2cn1 [Compound 16, N-(3-methoxypyridin-2-yl)-N-methyl-3-[4-(trifluoromethyl)phenyl]imidazo[1,2-a]pyrazine-6-carboxamide] | 454 nM
19 | CN(C(=O)c1cn2c(-c3ccc(Cl)cc3)cnc2cn1)c1ccc(S(C)(=O)=O)cc1 [Compound 17, 3-(4-chlorophenyl)-N-(4-methanesulfonylphenyl)-N-methylimidazo[1,2-a]pyrazine-6-carboxamide] | 602 nM
20 | CN(Cc1cn2c(-c3ccc(Cl)cc3)cnc2cn1)c1ccc(F)cc1 [Compound 18, N-{[3-(4-chlorophenyl)imidazo[1,2-a]pyrazin-6-yl]methyl}-4-fluoro-N-methylaniline] | 78 nM
21 | Cc1ccc(-c2cnc3cnc(C(=O)N(C)c4ccc(C#N)cc4)cn23)nc1 [Compound 19, N-(4-cyanophenyl)-N-methyl-3-(5-methylpyridin-2-yl)imidazo[1,2-a]pyrazine-6-carboxamide] | 280 nM
22 | CN(C(=O)c1cn2c(-c3ccc(Cl)cc3Cl)cnc2cn1)c1ccc(C#N)cc1 [Compound 20, N-(4-cyanophenyl)-3-(2,4-dichlorophenyl)-N-methylimidazo[1,2-a]pyrazine-6-carboxamide] | > 10000 nM
23 | CN(Cc1cn2c(-c3ccc(OC(F)F)cc3)cnc2cn1)c1ccc(F)cc1 [Compound 21, N-({3-[4-(difluoromethoxy)phenyl]imidazo[1,2-a]pyrazin-6-yl}methyl)-4-fluoro-N-methylaniline] | 46 nM
24 | CN(C(=O)c1cn2c(-c3ccc(C(N)=O)cc3)cnc2cn1)c1ccc(F)c(F)c1 [Compound 22, 3-(4-carbamoylphenyl)-N-(3,4-difluorophenyl)-N-methylimidazo[1,2-a]pyrazine-6-carboxamide] | 74 nM
25 | CN(C(=O)c1cn2c(-c3ccc(C(F)(F)F)cc3)cnc2cn1)c1ccc(F)cc1F [Compound 23, N-(2,4-difluorophenyl)-N-methyl-3-[4-(trifluoromethyl)phenyl]imidazo[1,2-a]pyrazine-6-carboxamide] | 99 nM
26 | CN(C(=O)c1ccc(N2CCOCC2)cc1)c1cn2c(-c3ccc(C(F)(F)F)cc3)cnc2cn1 [Compound 24, N-methyl-4-(morpholin-4-yl)-N-{3-[4-(trifluoromethyl)phenyl]imidazo[1,2-a]pyrazin-6-yl}benzamide] | 1120 nM
27 | CN(Cc1cn2c(-c3ccc(-c4nnc(N)s4)cc3)cnc2cn1)c1ccc(C#N)cc1 [Compound 25, 4-[({3-[4-(5-amino-1,3,4-thiadiazol-2-yl)phenyl]imidazo[1,2-a]pyrazin-6-yl}methyl)(methyl)amino]benzonitrile] | 6 nM

Same assay, conditions: Plasmodium falciparum, Erythrocyte, infected human red blood cells; read-out: EC50, P. falciparum Proliferation Assay

Row | Compound | EC50
28 | CN(Cc1cn2c(-c3ccc(-c4nnc(N)s4)cc3)cnc2cn1)c1ccc(C#N)cc1 [Compound 25, 4-[({3-[4-(5-amino-1,3,4-thiadiazol-2-yl)phenyl]imidazo[1,2-a]pyrazin-6-yl}methyl)(methyl)amino]benzonitrile] | < 50 nM
